Test results: publication PMC9000710, “Synthesis and Hemostatic Activity of New Amide Derivatives” (Molecules, 2022)

Assays:
[1] = Hemolysis assay (stability of erythrocytes); format: cell-based, human; conditions: male, human, heparinized whole blood diluted with saline (erythrocytes)
Procedure: Heparinized whole blood was used from a healthy volunteer. The whole blood (10 mL) was diluted with saline solution (90 mL). For each UV-Vis measurement, 2.5 mL of diluted blood was used. For each blood sample, 1 mL of a saline solution containing hydrochlorides 1–8 at concentrations of 5, 50, and 500 mg/L was added. As a control were used blood samples with the addition of 1% solution of DMSO in saline and 1% solution of SDS in saline. In all cases, the measurements were repeated twice for each concentration. […] The cells were centrifuged, and the absorbance of the supernatant, which contained plasma and lysed erythrocytes, was measured at 540 nm. The percentage of lysis was calculated from a standard curve of lysed erythrocytes treated with SDS [52].

human blood plasma [2] = test: Prothrombin time (PT) clotting assay; format: biochemical
Procedure: (§1) Human blood plasma was isolated from fresh buffy coats (collected onto the citrate-dextrose solution—ACD) purchased from the Regional Centre of Blood Donation and Blood Treatment in Lodz, Poland. In the isolation procedure, the buffy coats (60 mL units) were divided into volumes of 10 mL and centrifuged (4000 rpm/15 min) in 15 mL tubes. Next, 1 mL solutions of each amide 1–8 were prepared in distilled water at concentrations of 10, 25, and 50 mg/L. Then, 450 μL of plasma and 50 μL of each amide at the tested concentrations were placed into 1.5 mL vials. The vials were vortexed (Vortex Biosan V-1 plus), incubated at 37 °C on a thermoblock (Dry Block Thermostat Biosan TDB-120), and analyzed using a Kselmed K-3002 OPTIC coagulometer (Grudziądz, Poland), based on the manufacturer’s protocols (described below). The control sample was native blood plasma, untreated with any of the examined substances.
(§2) Fifty microliters of control plasma and plasma samples treated with the amides were transferred to measuring cuvettes and placed in the thermoblock module (37 °C) of a coagulometer (KSELMED, K-3002 Optic). Then, 100 μL of Dia-PT reagent (DIAGON Kft. Hungary; cat. no. 81100) was added. Measurements were started immediately.

human blood plasma [3] = test: Activated partial thromboplastin time (aPTT) clotting assay; format: biochemical
Procedure: as §1
as §2, with “of the” for “of a”, “Then, 50” for “Then, 100”, “of Dia-APTT” for “of Dia-PT”, “no. 72048) was added. The mixture was incubated for 180 s at 37 °C. Finally, 50 μL of reagent Dia-CaCl2 (DIAGON Kft. Hungary; cat. no. 41192)” for “no. 81100)”

human blood plasma [4] = test: Thrombin time (TT) clotting assay; format: biochemical
Procedure: as §1
Both 100 μL of control plasma and plasma samples treated with the amides were transferred to measuring cuvettes, which were placed in the thermoblock module (37 °C) of the coagulometer (KSELMED K-3002 Optic). Then, 100 μL of thrombin solution (4.5 U/mL, in 0.9% NaCl; Biomed, Lublin, Poland) was added to the cuvette. Measurements were started immediately.

human blood plasma [5] = test: Clot formation and fibrinolysis (CFF) assay; format: biochemical; conditions: for Amax (maximum of fibrin clot absorbance at 360 nm) / VmaxC (of Fibrin Polymerization) / VmaxF (of Fibrin Clot Lysis): control plasma assumed as 100%, mean ± SD, n = 5–7
Description: The CFF assay enables analysis of both the blood plasma coagulation process and fibrinolysis efficiency. The thrombin enzyme in the reagent mixture initiates blood plasma fibrinogen polymerization, leading to an increase in absorbance in the sample until the maximal absorbance (Amax) is attained. The fibrinolytic activity of blood plasma is induced by the tissue-type plasminogen activator (t-PA). The activation of fibrinolysis in the tested samples leads to fibrin clot degradation and decreases the absorbance to the baseline.
Figure 11 An exemplary curve of blood plasma coagulation and clot lysis recorded during the clot formation and fibrinolysis (CFF) assay. The first step in the CFF test involves activation of the blood plasma coagulation cascade and fibrin clot formation (1). It is characterized by the maximal velocity of the fibrin polymerization parameter (VmaxC). The maximal absorbance (Amax) peak corresponds to the fibrin stabilization phase and is an indicator of fibrin clot thickness (2). The third step of the CFF assay covers the activation of fibrinolytic mechanisms and fibrin clot degradation (3) and is described by the maximal velocity of clot lysis (VmaxF).
Thrombin was purchased from BioMed (Lublin, Poland). A tissue-type plasminogen activator (Actilyse®) was purchased from Boehringer Ingelheim, Ingelheim am Rhein, Germany. Kinetic measurements were executed using a SpectrostarNano microplate spectrophotometer (BMG LabTech, Ortenberg, Germany).
Measurements were performed using a kinetic model, as described in our previous work. Briefly, blood plasma was preincubated with the examined substances (at final concentrations of 10, 25, and 50 mg/L) for 15 min at 37 °C. Then, 100 μL of blood plasma was added to microtiter plate wells, which was followed by 200 μL of the reagent mixture (0.75 U/mL thrombin, 225 ng/mL t-PA and 7.5 mM CaCl2) suspended in tris-buffered saline (0.05 M TBS, 0.9% NaCl; pH 7.4). Measurements of absorbance changes were started immediately and continued for 60 min at 37 °C, λ = 360 nm. The following parameters were used to determine the effects of the examined substances on the coagulation and fibrinolytic properties of the blood plasma: the maximal velocity of fibrinogen polymerization (VmaxC), which is an indicator of the plasma coagulation efficiency; the maximal absorbance (Amax), which is an indicator of the fibrin clot stabilization and its thickness; the maximal velocity of clot lysis (VmaxF), which is an indicator of blood plasma fibrinolytic activity.

Cl.NCCCCCC(=O)NCc1ccc(C(=O)O)cc1 [Amide 2, 4-((6-Aminohexanamido)methyl)benzoic acid hydrochloride]
hemolysis at 45 min, 5 mg/L ([1]; c 5 mg/L, 45 min): 0.41% | hemolysis at 120 min, 5 mg/L ([1]; c 5 mg/L, 120 min): 0.21% | hemolysis at 240 min, 5 mg/L ([1]; c 5 mg/L, 240 min): 0.65% | hemolysis at 45 min, 50 mg/L ([1]; c 50 mg/L, 45 min): 0.11% | hemolysis at 120 min, 50 mg/L ([1]; c 50 mg/L, 120 min): 0.74% | hemolysis at 240 min, 50 mg/L ([1]; c 50 mg/L, 240 min): 0.3% | hemolysis at 45 min, 500 mg/L ([1]; c 500 mg/L, 45 min): 1.03% | hemolysis at 120 min, 500 mg/L ([1]; c 500 mg/L, 120 min): 0.21% | hemolysis at 240 min, 500 mg/L ([1]; c 500 mg/L, 240 min): 0.43% | PT Time [% of Control] (human blood plasma [2]; c 10 mg/L): 97.0 ± 4.8 % of Control | PT Time [% of Control] (human blood plasma [2]; c 25 mg/L): 96.1 ± 2.2 % of Control | PT Time [% of Control] (human blood plasma [2]; c 50 mg/L): 95.5 ± 2.5 % of Control | prothrombin time, effect versus control in words (human blood plasma [2]; two higher concentrations (25 and 50 mg/L)): significantly decreased | aPTT Time [% of Control] (human blood plasma [3]; c 10 mg/L): 98.5 ± 8.0 % of Control | aPTT Time [% of Control] (human blood plasma [3]; c 25 mg/L): 101.0 ± 13.1 % of Control | aPTT Time [% of Control] (human blood plasma [3]; c 50 mg/L): 101.9 ± 14.0 % of Control | TT Time [% of Control] (human blood plasma [4]; c 10 mg/L): 99.0 ± 1.8 % of Control | TT Time [% of Control] (human blood plasma [4]; c 25 mg/L): 98.9 ± 4.7 % of Control | TT Time [% of Control] (human blood plasma [4]; c 50 mg/L): 95.9 ± 6.8 % of Control | Amax (maximum of fibrin clot absorbance at 360 nm) (human blood plasma [5]; 10 mg/L): 105.29 ± 6.41% | VmaxC (of Fibrin Polymerization) (human blood plasma [5]; 10 mg/L): 103.26 ± 3.98% | VmaxF (of Fibrin Clot Lysis) (human blood plasma [5]; 10 mg/L): 75.81 ± 17.04 % | Amax (maximum of fibrin clot absorbance at 360 nm) (human blood plasma [5]; 25 mg/L): 110.74 ± 4.86 % | VmaxC (of Fibrin Polymerization) (human blood plasma [5]; 25 mg/L): 106.30 ± 3.60 % | VmaxF (of Fibrin Clot Lysis) (human blood plasma [5]; 25 mg/L): 79.60 ± 10.55 % | Amax (maximum of fibrin clot absorbance at 360 nm) (human blood plasma [5]; 50 mg/L): 110.77 ± 9.85 % | VmaxC (of Fibrin Polymerization) (human blood plasma [5]; 50 mg/L): 105.59 ± 3.74 % | VmaxF (of Fibrin Clot Lysis) (human blood plasma [5]; 50 mg/L): 85.69 ± 8.80 % | effect on fibrin polymerization (VmaxC) in words (human blood plasma [5]; tested at 10, 25, 50 mg/L): Mild pro-coagulant effects | melting point: 199 to 201 °C
